Results on four compounds are retold here after patent US11414402B2, “Sulfonamide-substituted cyanopyrrolidines with activity as DUB inhibitors” (MISSION THERAPEUTICS LIMITED, priority 2017, dated 2022).

Structures are written as SMILES. pIC50: −log10 of the molar value.

In test [1] the target is UCHL1 (Homo sapiens (Human), UniProt P09936). The test is described as follows: UCHL1 biochemical IC50 assay (fluorescence polarisation). The note with it: FLAG-UCHL1; 30 min preincubation at room temp; TAMRA-peptide-ubiquitin substrate 50 nM; read after 2-hour incubation; read-out: IC50 range. Here is the method: The UCHL1 construct was PCR amplified and cloned into a pFLAG-CMV-6a vector (Sigma-Aldrich) with an N-terminal FLAG tag. HEK293T cells were transfected with FLAG-UCHL1 using TransIT-LT1 transfection reagent (Mirus) according to the manufacturer's instructions. Cells were harvested 40 hours after transfection. […] The resin was washed two times with low salt buffer and one time with high salt buffer (20 mM Tris, pH 7.5, 500 mM NaCl, 0.5 mM EDTA, 5 mM beta-mercaptoethanol, protease inhibitors (complete mini, Roche) and phosphatase inhibitors (PhosSTOP mini, Roche). To elute the bound UCHL1, elution buffer (10 mM Tris, pH 7.5, 150 mM NaCl, 0.5 mM EDTA, 10% glycerol, 0.5% NP40, 5 mM beta-mercaptoethanol, 0.15 mg/ml 3× FLAG peptide (Sigma-Aldrich)) was added to the resin and incubated at 4° C. for 2.5 hours rotating. The resin was centrifuged at 4000 rpm for 30 seconds, and the supernatant containing purified FLAG-UCHL1 was removed and stored at −80° C.
UCHL1 was diluted in reaction buffer (20 mM Tris, pH 7.5, 100 mM NaCl, 0.05% Tween 20, 0.5 mg/ml BSA, 5 mM beta-mercaptoethanol) to the equivalent of 0, 0.01, 0.05, 0.1, 0.5, and 1 μl/well. Buffer was optimised for optimal temperature, pH, reducing agent, salts, time of incubation, and detergent. Reactions were initiated by the addition of 50 nM of TAMRA labelled peptide linked to ubiquitin via an iso-peptide bond as fluorescence polarisation substrate. Reactions were incubated at room temperature and read every 2 min for 120 min. Readings were performed on a Pherastar Plus (BMG Labtech). λ Excitation 540 nm; λ Emission 590 nm.
A typical 8-point dilution series to be 30, 10, 3, 1, 0.3, 0.1, 0.03, 0.01 μM final. […] Either 1 μl of 50% DMSO or diluted compound was added to the plate. UCHL1 was diluted in reaction buffer (20 mM Tris, pH 7.5, 100 mM NaCl, 0.05% Tween 20, 0.5 mg/ml BSA, 5 mM beta-mercaptoethanol) to the equivalent of 0.05 μl/well and 10 μl of diluted UCHL1 was added to the compound. Enzyme and compound were incubated for 30 min at room temp. Reactions were initiated by the addition of 50 nM of TAMRA labelled peptide linked to ubiquitin via an iso-peptide bond as fluorescence polarisation substrate. Reactions were read immediately after addition of substrate and following a 2-hour incubation at room temperature. Readings were performed on a Pherastar Plus (BMG Labtech). λ Excitation 540 nm; λ Emission 590 nm.
In general terms: Fluorescence polarisation rises when a labelled molecule tumbles more slowly, as on binding a larger partner.

The target in test [2] is USP30 (Homo sapiens (Human), UniProt Q70CQ3). The test is described as follows: USP30 biochemical IC50 assay (fluorescence polarisation). The settings on record: USP30 CD (57-517); 30 min preincubation at room temp; TAMRA-peptide-ubiquitin substrate 50 nM; read after 2-hour incubation; read-out: IC50 range. How it is done:
A typical 8-point dilution series would be 100, 30, 10, 3, 1, 0.3, 0.1, 0.03 μM final. […] Either 1 μl of 50% DMSO or diluted compound was added to the plate. USP30 was diluted in reaction buffer (40 mM Tris, pH 7.5, 0.005% Tween 20, 0.5 mg/ml BSA, 5 mM beta-mercaptoethanol) to the equivalent of 0.05 μl/well and 10 μl of diluted USP30 was added to the compound. Enzyme and compound were incubated for 30 min at room temp. Reactions were initiated by the addition of 50 nM of TAMRA labelled peptide linked to ubiquitin via an iso-peptide bond as fluorescence polarisation substrate. Reactions were read immediately after addition of substrate and following a 2-hour incubation at room temperature. Readings were performed on a Pherastar Plus (BMG Labtech). λ Excitation 540 nm; λ Emission 590 nm.

Chain of USP30 (Q70CQ3 57-517): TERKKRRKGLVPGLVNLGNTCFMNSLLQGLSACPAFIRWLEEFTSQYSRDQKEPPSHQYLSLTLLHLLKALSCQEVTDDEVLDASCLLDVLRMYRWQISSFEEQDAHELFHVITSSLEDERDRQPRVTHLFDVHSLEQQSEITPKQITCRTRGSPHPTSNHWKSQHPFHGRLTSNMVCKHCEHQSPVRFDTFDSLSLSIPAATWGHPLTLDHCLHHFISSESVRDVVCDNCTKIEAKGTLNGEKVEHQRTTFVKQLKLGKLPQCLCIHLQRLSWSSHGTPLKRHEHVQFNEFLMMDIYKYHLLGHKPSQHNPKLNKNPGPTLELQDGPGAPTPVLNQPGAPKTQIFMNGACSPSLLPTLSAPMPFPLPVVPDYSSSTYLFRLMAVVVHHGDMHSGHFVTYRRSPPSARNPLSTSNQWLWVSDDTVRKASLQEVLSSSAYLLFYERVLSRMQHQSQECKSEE
Chain of UCHL1 (P09936 whole entry): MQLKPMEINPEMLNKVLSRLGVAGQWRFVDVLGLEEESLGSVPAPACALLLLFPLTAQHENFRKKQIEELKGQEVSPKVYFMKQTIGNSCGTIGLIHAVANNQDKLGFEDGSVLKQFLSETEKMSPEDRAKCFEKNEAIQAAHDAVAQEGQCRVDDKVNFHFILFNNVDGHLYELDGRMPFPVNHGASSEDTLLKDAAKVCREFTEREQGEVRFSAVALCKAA

The pIC50 is −log10 of the IC50, conventionally taken in molar units. As for `N#CN1CCC(NS(=O)(=O)c2ccc(Oc3ccc(C(F)(F)F)cn3)cc2)C1` (centres unmarked) [Example 19, N-(1-cyanopyrrolidin-3-yl)-4-((5-(trifluoromethyl)pyridin-2-yl)oxy)benzenesulfonamide], the pIC50 in test [1] and in test [2] was 6.00 to 7.00 in each case.

As to `Cn1nccc1C(=O)Nc1ccc(S(=O)(=O)NC2CCN(C#N)C2)cn1` (centres unmarked) [Example 24, N-(5-(N-(1-cyanopyrrolidin-3-yl)sulfamoyl)pyridin-2-yl)-1-methyl-1H-pyrazole-5-carboxamide], the pIC50 in test [1] was 4.00 to 5.00; in test [2], 6.00 to 7.00.

For the compound `N#CN1CCC(NS(=O)(=O)c2ccc(OCc3ccccc3)cc2)C1` (centres unmarked) [Example 8], the pIC50 in test [1] is 5.00 to 6.00; in test [2], 6.00 to 7.00.

For the compound `CN(C1CCN(C#N)C1)S(=O)(=O)c1ccc(Oc2ccc(C(F)(F)F)cn2)cc1` (centres unmarked) [Example 25, N-(1-cyanopyrrolidin-3-yl)-N-methyl-4-((5-(trifluoromethyl)pyridin-2-yl)oxy)benzenesulfonamide], the pIC50 was 5.00 to 6.00 in test [1] and 6.00 to 7.00 in test [2].
